± gives the standard deviation of the averaged measurements.
What was measured:
Conditions in all cases: 72 h
[1] = test system: HepG2; assay: relative viability EC50 (midpoint between 100% and the lowest measured viability); higher = less toxic
[2] = test system: Vero E6; assay: as above
[3] = test system: U2OS; assay: as above
[4] = test system: Caco-2; assay: as above
[5] = test system: Calu-3; assay: as above
[6] = test system: HepG2; assay: drug sensitivity score (DSS) for viability; higher = more toxic; extreme values may be limits of the assay
[7] = test system: Vero E6; assay: as above
[8] = test system: U2OS; assay: as above
[9] = test system: Caco-2; assay: as above
[10] = test system: Calu-3; assay: as above
[11] = test system: HepG2; assay: cell viability relative to DMSO; higher = less toxic
[12] = test system: Vero E6; assay: as above
[13] = test system: U2OS; assay: as above
[14] = test system: Caco-2; assay: as above
[15] = test system: Calu-3; assay: as above

SMILES	relative viability EC50 [1]	relative viability EC50 [2]	relative viability EC50 [3]	relative viability EC50 [4]	relative viability EC50 [5]	drug sensitivity score [6]	drug sensitivity score [7]	drug sensitivity score [8]	drug sensitivity score [9]	drug sensitivity score [10]	cell viability ([11]; 1 nM)	cell viability ([11]; 10 nM)	cell viability ([11]; 100 nM)	cell viability ([11]; 1000 nM)	cell viability ([11]; 10000 nM)	cell viability ([12]; 1 nM)	cell viability ([12]; 10 nM)	cell viability ([12]; 100 nM)	cell viability ([12]; 1000 nM)	cell viability ([12]; 10000 nM)	cell viability ([13]; 1 nM)	cell viability ([13]; 10 nM)	cell viability ([13]; 100 nM)	cell viability ([13]; 1000 nM)	cell viability ([13]; 10000 nM)	cell viability ([14]; 1 nM)	cell viability ([14]; 10 nM)	cell viability ([14]; 100 nM)	cell viability ([14]; 1000 nM)	cell viability ([14]; 10000 nM)	cell viability ([15]; 1 nM)	cell viability ([15]; 10 nM)	cell viability ([15]; 100 nM)	cell viability ([15]; 1000 nM)	cell viability ([15]; 10000 nM)
CCOC(=O)c1ccc(-c2ccc(OC(=O)N(C)Cc3cccc(-c4ccncc4)c3)cc2)cc1 [WWL-113]	3.7 µM	> 10 µM	> 10 µM	> 10 µM	> 10 µM	2.9	0	0	0	0	100%	106%	96.5%	107%	38.1%	94.7%	98.4%	92.5%	99.6%	91.4%	104%	97.3%	98.9%	95.9%	97.8%	97.4%	102%	105%	96.5%	92.8%	108%	93.6%	108%	99.1%	106%
Fc1ccc2nc(CCC#Cc3ccccn3)cn2c1 [dipraglurant]	> 10 µM	> 10 µM	> 10 µM	> 10 µM	> 10 µM	0	0	0	0	0.1	99.9%	99.8%	103%	104%	106%	94.8%	100%	91.6%	93.3%	110%	100%	97.3%	95.3%	93.9%	99.9%	102%	94.2%	106%	99.5%	99.3%	92.1%	100%	95.2%	99.4%	88%
CC(C)(C)NCC(O)COc1cccc2c1CCC(=O)N2 (stereo not given) [carteolol]	> 10 µM	> 10 µM	> 10 µM	> 10 µM	> 10 µM	0	0	0	0	0	101%	87.8%	100%	101%	105%	96.3%	95.9%	98.4%	99%	98.3%	98.5%	101%	95.9%	97.2%	93.9%	100%	96.1%	95.8%	98.1%	95.7%	94.8%	109%	104%	92.9%	104%
CC(C)(C)c1[nH]cnc1/C=c1\[nH]c(=O)/c(=C/c2ccccc2)[nH]c1=O [plinabulin]	0.0668 µM	0.0633 µM	0.0591 µM	0.123 µM	0.0465 µM	19.7	23.9	21.3	13.1	17.3	108%	97.1%	50.1%	25.5%	30.9%	106%	101%	32.7%	11.7%	11.4%	101%	94.9%	45.3%	22.3%	20.6%	107%	89.1%	68.6%	53.5%	37.6%	102%	87.9%	56.8%	40.7%	36.6%
COC(=O)C1=C(C)NC(C)=C(C(=O)OC/C=C/c2ccccc2)C1c1cccc([N+](=O)[O-])c1 (stereo not given) [pranidipine]	> 10 µM	> 10 µM	> 10 µM	> 10 µM	> 10 µM	0	0	0	0	0	97.1%	102%	107%	103%	95.1%	93.8%	103%	83.1%	95.1%	96.9%	98.1%	93%	99.6%	95.5%	94.8%	101%	80%	97%	91.5%	92.6%	103%	101%	99.7%	91.7%	91.8%
CC(C)(O)C(=O)Nc1ccc([N+](=O)[O-])c(C(F)(F)F)c1 [2-hydroxyflutamide]	> 10 µM	> 10 µM	> 10 µM	> 10 µM	> 10 µM	0	0	0	0	0	97.6%	99.3%	92.6%	98%	98.1%	100%	102%	102%	93.9%	97%	99%	105%	103%	97.1%	94.6%	97.3%	90.4%	90%	96.5%	87.9%	100%	97.2%	97.8%	101%	107%
O=c1ccn([C@@H]2O[C@H](COP(=O)(O)OP(=O)(O)OP(=O)(O)O)[C@@H](O)[C@H]2O)c(=O)[nH]1 [INS316]	> 10 µM	> 10 µM	> 10 µM	> 10 µM	> 10 µM	0	0	0	0	0	100 ± 1.2%	107 ± 2%	109 ± 10%	105 ± 3%	103 ± 5.7%	98.6 ± 2.5%	93.3 ± 11%	98.2 ± 2.6%	98.5 ± 4.2%	99.1 ± 3.1%	99.4 ± 5.7%	95.9 ± 3.8%	103 ± 7.8%	96.3 ± 6.7%	105 ± 1.8%	102 ± 6%	107 ± 18%	109 ± 1.8%	113 ± 26%	93.5 ± 13%	94.5 ± 3.1%	95.8 ± 7.1%	92.5 ± 1.9%	100.8 ± 0.21%	101 ± 7.7%
